Test results as given in patent US20230218555A1, “CREATINE, ITS DERIVATIVES, COMPOSITIONS AND METHODS OF USE THEREOF” (priority 2021, published 2023).

Legend:
Assay type in all cases: in vivo, human
[1] = test system: rheumatoid arthritis; rheumatoid nodule; assay: Example 13: rheumatoid arthritis fingers, nodule injection and glove application; conditions: left hand only
Method: A subject noted changes in their fingers that appeared to be compatible with the diagnosis of early rheumatoid arthritis in autumn of the year. At about one month later there appeared over the terminal interphalangeal joint of the left third finger a raised inflammatory nodule compatible with the diagnosis of a rheumatoid nodule. The nodule was injected with 0.15 ml of a 2% aqueous solution/suspension of creatine monohydrate once weekly for four injections. […] Thereafter, for a period of one month, the subject wore a nitrile glove containing a few drops N-acetyl ethyl creatine 3% dissolved in water: propylene glycol 8:2 for about an hour twice daily on the left hand only.

[2] = test system: osteoarthritis of numerous joints; assay: Example 19: abdominal subcutaneous injections
Method: A physician subject with continually worsening, for 15-16 years, painful osteoarthritis of numerous joints (almost entire spine, wrists, right shoulder, knees and most recently the feet) on one day at 11:30 AM self injected subcutaneously the right abdominal area with 3 ml of a sterile aqueous solution that they had prepared containing N-acetyl ethyl creatinate 1%, arginine 0.25%, pH 7. Using 1 ml insulin syringes with short 8 mm needles 1 ml of the solution was injected into each of 3 sites. Ten minutes later their whole body was 95+% pain free and remained so for 3.5 hours when pain was sensed to be returning. Pain in usual severity returned within another 20-30 minutes.
The next day at 9:00 AM the subject injected 5 sites, each with 1 ml of the same solution. Within 10 minutes their whole body again was 95+% pain free. This almost complete pain free state was maintained for 4 hours when very mild pain in the knees was sensed. Pain in knees and in cervical spine returned to usual degree of severity within an ensuing period of about 20 minutes.

[3] = test system: bunion on right foot; assay: Example 21: subcutaneous injection over bunion; conditions: weekly subcutaneous injections of 1.5% aqueous solution
Source text: A subject presented with bunion on right foot that has been enlarging over the past decade. […] Weekly injections will be continued for another month or two to determine whether complete resolution will be achieved.

[4] = test system: painful right elbow; assay: Example 24: osteoarthritis, elbow
Method: A subject presented with a history of painful right elbow for several weeks. They were provided with a topical solution of C15 8% in WP 82.
A subject with a history of right elbow for several months applied the above same solution to the elbo
On three other occasions, C15 1.5% aqueous solution 1 ml was injected subcutaneously in two lateral sites of the elbow and one site over extensor part of the elbow.

[5] = test system: painful right shoulder; assay: Example 24: osteoarthritis, shoulder
Source text: The same subject above has had painful right shoulder for several months.

[6] = test system: cervical and thoracic spine; assay: Example 24: osteoarthritis, spine
Method: The same subject above topically applied an adhesive dressing, 5 cm wide and 30 cm long, saturated with a solution of C15 4% in WP 82 to the upper spine.
Over a period of 3 months, subcutaneous injections of 0.6 ml of the above C15 solution were injected subcutaneously into each of 5 intervertebral sites of the cervical and thoracic spine.

[7] = test system: migraine headaches and associated symptoms; assay: Example 29: migraine headache
Method: A subject, with a history of migraine headaches and associated symptoms, presented with a recurrent episode of such that had begun during their night of sleep. Symptoms included an intense frontal headache, and feeling of light dizziness, and nausea when they turned their head. They were provided a 9% solution of C15 dissolved in WEP 532 to be applied to the forehead and temporal areas as needed to relieve symptoms. […] Relief lasted for 1-4 hours during the first day of use, and during the second day of use, the subject experienced a much longer period of relief of symptoms.

CCOC(=O)CN(C)C(N)=NC(C)=O [Compound C15, N-acetyl ethyl creatinate]
pain on making a fist ([1]; 3% in glove): the left fist was pain free whereas the right fist was substantially painful
size of tight fist ([1]; 3% in glove): the size of the left fist was visibly smaller than that of the right
flexibility of hand and fingers ([1]; 3% in glove, right hand restricted): The left hand and fingers were completely flexible
feel of treated left hand vs untreated right hand ([1]; 3% in water: propylene glycol 8:2 in nitrile glove, about an hour twice daily, one month, after another two months): feel much better than the right hand
whole body pain free ([2]; 3 ml of 1% solution (arginine 0.25%, pH 7), 1 ml into each of 3 abdominal sites, subcutaneous): ≥ 95%
duration of pain free state ([2]; 3 ml, 3 sites): 3.5 h
time to pain free state ([2]; 3 ml, 3 sites): Ten
duration of pain free state ([2]; 5 sites, each 1 ml): 4 h
time to pain free state ([2]; 5 sites, each 1 ml): ≤ 10 min
whole body pain free ([2]; next day, 5 sites, each 1 ml of the same solution): ≥ 95%
change of bunion [3]: distinct resolution in mass
extent of pain relief ([4]; 1.5% aqueous solution 1 ml subcutaneous, three sites of elbow, person): complete relief of pain
duration of relief ([4]; 1.5% subcutaneous): 24 to 30 h
time to pain relief ([4]; 1.5% subcutaneous): within an hour
relief of pain ([4]; 8% in WP 82, topical multiple times, person): No pain relieve was experienced
duration of relief ([4]; 8% in WP 82, topical, person): 5 to 6 h
relief of pain ([4]; 8% in WP 82, topical, person): relieved pain instantaneously completely
duration of relief ([5]; subcutaneous 1 ml): 6 to 7 days
extent of pain relief ([5]; subcutaneous 1 ml of 1.5% aqueous solution, three occasions, person): complete relief of pain
time to pain relief ([6]; 4% dressing): within an hour
duration of relief ([6]; 4% dressing, until removed): about 8 hours
extent of pain relief ([6]; adhesive dressing saturated with 4% in WP 82 on upper spine, person): complete relief of pain
extent of pain relief ([6]; subcutaneous 0.6 ml into each of 5 intervertebral sites, five occasions): complete relief of pain
duration of relief ([6]; subcutaneous 0.6 ml, 5 sites): 1-4 weeks
relief of symptoms ([7]; 9% in WEP 532, to forehead and temporal areas): relieved symptoms within a few minutes
duration of relief ([7]; first day of use): 1 to 4 h
symptoms at end of third day ([7]; following 3 more applications): symptoms were no longer detectable
follow-up ([7]; next week): remained symptoms free over the next week of follow-up
